Publication PMC7525662, “Preclinical dosimetry models and the prediction of clinical doses of novel positron emission tomography radiotracers” (Scientific Reports, 2020)
Marks after values point to notes of the source that are not given here.

Legend:
Parameters in all cases: species or system Sprague–Dawley rats
[1] = Residence times in rat source organs from whole-body PET, FBP reconstruction; conditions: in vivo, iv
Description: (§1) Immediately after radiotracer administration, a 240 min emission scan using 4 beds (50% overlap) was obtained using 3-dimensional 1:5 mode and re-binned as follows: 7 × 1 min, 2 × 5 min and 4 × 10 min. Throughout the PET/CT scanning session, animal temperature and respiration rate were monitored and controlled. PET studies were reconstructed using filtered-back projection (FBP) and Mediso’s iterative Tera-Tomo 3D reconstruction algorithm with the following settings: 4 iterations, 6 subsets, full detector model, normal regularization, spike filter on, voxel size 0.4 mm and 400‒600 keV energy window. PET data were corrected for randoms, scatter and attenuation. […] Then, PMOD’s contours interpolation tool was used to interpolate ROIs for each organ into a corresponding volume-of-interest (VOI). A static cuboidal VOI was also drawn to include the animal whole-body. Time-activity curves for each source organ, whole-body and remainder of the body were plotted. […] Residence times (τ) were determined for each radiotracer in source organs, whole-body and remaining (any activity assigned to the whole-body but not assigned to a source organ). Each preclinical source organ’s τ was determined by calculating the area under its respective time-activity curve (activity normalised to the percentage maximum injected dose as a function of time) using the trapezoid method. […] From each individual animal, eight dosimetry models were constructed from all possible combinations of image reconstruction method (FBP or iterative), τ (non-normalised or normalised to human organ masses), and sex of phantom (male or female).

[2] = OLINDA/EXM predicted clinical doses: adult female phantom, normalised τ, iterative; conditions: rat, in vivo
Description: (§2) PET studies were reconstructed using filtered-back projection (FBP) and Mediso’s iterative Tera-Tomo 3D reconstruction algorithm with the following settings: 4 iterations, 6 subsets, full detector model, normal regularization, spike filter on, voxel size 0.4 mm and 400‒600 keV energy window. PET data were corrected for randoms, scatter and attenuation. Time-activity curves for each source organ, whole-body and remainder of the body were plotted. […] Residence times (τ) were determined for each radiotracer in source organs, whole-body and remaining (any activity assigned to the whole-body but not assigned to a source organ). Each preclinical source organ’s τ was determined by calculating the area under its respective time-activity curve (activity normalised to the percentage maximum injected dose as a function of time) using the trapezoid method. […] From each individual animal, eight dosimetry models were constructed from all possible combinations of image reconstruction method (FBP or iterative), τ (non-normalised or normalised to human organ masses), and sex of phantom (male or female). Supplementary table 12. Predicted clinical absorbed organ doses and whole-body effective doses of PET radiotracers using normalised adult female source organ residence times from iterative reconstructions.

[3] = OLINDA/EXM predicted clinical doses: adult male phantom, normalised τ, FBP; conditions: rat, in vivo
Description: as §2, with “female).” for “female). Supplementary table 12. Predicted clinical absorbed organ doses and whole-body effective doses of PET radiotracers using normalised adult female source organ residence times from iterative reconstructions.”

[4] = OLINDA/EXM predicted clinical doses: adult male phantom, non-normalised τ, iterative; conditions: rat, in vivo
Description: as §2, with “female).” for “female). Supplementary table 12. Predicted clinical absorbed organ doses and whole-body effective doses of PET radiotracers using normalised adult female source organ residence times from iterative reconstructions.”

[5] = Residence times in rat source organs from whole-body PET, iterative reconstruction; conditions: in vivo, iv
Description: as §1

Substance: NOTA-RGDfK [existing Al^18F-labelled NOTA-RGDfK peptide PET radiotracer; precursor NOTA-RGDfK (1)]
- Residence Time (h), Average: Brain [1]: 0.00193 h
- Residence Time (h), Average: Heart [1]: 0.00279 h
- Residence Time (h), Average: Intestine [1]: 0.209 h
- Residence Time (h), Average: Kidneys [1]: 0.029 h
- Residence Time (h), Average: Liver [1]: 0.0207 h
- Residence Time (h), Average: Lungs [1]: 0.00664 h
- Residence Time (h), Average: Remaining [1]: 1.96 h
- Residence Time (h), Average: Urinary Bladder [1]: 0.892 h
- Effective Dose [2]: 8.33E-03 mSv/MBq
- Estimated Absorbed Dose of Organ, Brain [2]: 8.66E-03 mGy/MBq
- Estimated Absorbed Dose of Organ, Breasts [2]: 2.91E-03 mGy/MBq
- Estimated Absorbed Dose of Organ, Gallbladder Wall [2]: 5.51E-03 mGy/MBq
- Estimated Absorbed Dose of Organ, Heart Wall [2]: 1.03E-02 mGy/MBq
- Estimated Absorbed Dose of Organ, Kidneys [2]: 1.53E-02 mGy/MBq
- Estimated Absorbed Dose of Organ, LLI Wall [2]: 8.45E-03 mGy/MBq
- Estimated Absorbed Dose of Organ, Liver [2]: 3.23E-02 § mGy/MBq
- Estimated Absorbed Dose of Organ, Lungs [2]: 9.20E-03 mGy/MBq
- Estimated Absorbed Dose of Organ, Muscle [2]: 8.21E-03 mGy/MBq
- Estimated Absorbed Dose of Organ, Osteogenic Cells [2]: 7.60E-03 mGy/MBq
- Estimated Absorbed Dose of Organ, Ovaries [2]: 7.96E-03 mGy/MBq
- Estimated Absorbed Dose of Organ, Pancreas [2]: 1.68E-02 mGy/MBq
- Estimated Absorbed Dose of Organ, Red Marrow [2]: 8.65E-03 mGy/MBq
- Estimated Absorbed Dose of Organ, Skin [2]: 1.09E-02 mGy/MBq
- Estimated Absorbed Dose of Organ, Small Intestine [2]: 6.42E-02 ‡ mGy/MBq
- Estimated Absorbed Dose of Organ, Spleen [2]: 5.48E-03 mGy/MBq
- Estimated Absorbed Dose of Organ, Stomach Wall [2]: 1.13E-02 mGy/MBq
- Estimated Absorbed Dose of Organ, Thymus [2]: 8.11E-03 mGy/MBq
- Estimated Absorbed Dose of Organ, Thyroid [2]: 6.90E-03 mGy/MBq
- Estimated Absorbed Dose of Organ, ULI Wall [2]: 8.02E-03 mGy/MBq
- Estimated Absorbed Dose of Organ, Urinary Bladder Wall [2]: 5.97E-03 mGy/MBq
- Estimated Absorbed Dose of Organ, Uterus [2]: 2.38E-01 † mGy/MBq
- Estimated Absorbed Dose, Total Body [2]: 2.06E-02 mGy/MBq
- Effective Dose (mSv/MBq), Average ± SD [3]: 2.18E-02 mSv/MBq
- Estimated Absorbed Dose of Organ, Average: Adrenals [3]: 1.10E-02 mGy/MBq
- Estimated Absorbed Dose of Organ, Average: Brain [3]: 3.17E-03 mGy/MBq
- Estimated Absorbed Dose of Organ, Average: Breasts [3]: 8.04E-03 mGy/MBq
- Estimated Absorbed Dose of Organ, Average: Gallbladder Wall [3]: 1.15E-02 mGy/MBq
- Estimated Absorbed Dose of Organ, Average: Heart Wall [3]: 1.15E-02 mGy/MBq
- Estimated Absorbed Dose of Organ, Average: Kidneys [3]: 1.64E-02 § mGy/MBq
- Estimated Absorbed Dose of Organ, Average: LLI Wall [3]: 5.79E-02 ‡ mGy/MBq
- Estimated Absorbed Dose of Organ, Average: Liver [3]: 6.81E-03 mGy/MBq
- Estimated Absorbed Dose of Organ, Average: Lungs [3]: 8.79E-03 mGy/MBq
- Estimated Absorbed Dose of Organ, Average: Muscle [3]: 1.05E-02 mGy/MBq
- Estimated Absorbed Dose of Organ, Average: Osteogenic Cells [3]: 1.53E-02 mGy/MBq
- Estimated Absorbed Dose of Organ, Average: Pancreas [3]: 1.17E-02 mGy/MBq
- Estimated Absorbed Dose of Organ, Average: Red Marrow [3]: 9.94E-03 mGy/MBq
- Estimated Absorbed Dose of Organ, Average: Skin [3]: 7.88E-03 mGy/MBq
- Estimated Absorbed Dose of Organ, Average: Small Intestine [3]: 1.40E-02 mGy/MBq
- Estimated Absorbed Dose of Organ, Average: Spleen [3]: 1.09E-02 mGy/MBq
- Estimated Absorbed Dose of Organ, Average: Stomach Wall [3]: 1.13E-02 mGy/MBq
- Estimated Absorbed Dose of Organ, Average: Testes [3]: 1.18E-02 mGy/MBq
- Estimated Absorbed Dose of Organ, Average: Thymus [3]: 9.99E-03 mGy/MBq
- Estimated Absorbed Dose of Organ, Average: Thyroid [3]: 9.88E-03 mGy/MBq
- Estimated Absorbed Dose of Organ, Average: Total Body [3]: 1.05E-02 mGy/MBq
- Estimated Absorbed Dose of Organ, Average: ULI Wall [3]: 1.28E-02 mGy/MBq
- Estimated Absorbed Dose of Organ, Average: Urinary Bladder Wall [3]: 1.16E-01 † mGy/MBq
- Effective Dose (mSv/MBq), Average ± SD [4]: 6.30E-02 mSv/MBq
- Estimated Absorbed Dose of Organ, Average ± SD: Adrenals [4]: 7.60E-03 mGy/MBq
- Estimated Absorbed Dose of Organ, Average ± SD: Brain [4]: 1.47E-03 mGy/MBq
- Estimated Absorbed Dose of Organ, Average ± SD: Breasts [4]: 4.25E-03 mGy/MBq
- Estimated Absorbed Dose of Organ, Average ± SD: Gallbladder Wall [4]: 8.74E-03 mGy/MBq
- Estimated Absorbed Dose of Organ, Average ± SD: Heart Wall [4]: 6.02E-03 mGy/MBq
- Estimated Absorbed Dose of Organ, Average ± SD: Kidneys [4]: 4.41E-02 § mGy/MBq
- Estimated Absorbed Dose of Organ, Average ± SD: LLI Wall [4]: 1.50E-01 ‡ mGy/MBq
- Estimated Absorbed Dose of Organ, Average ± SD: Liver [4]: 8.14E-03 mGy/MBq
- Estimated Absorbed Dose of Organ, Average ± SD: Lungs [4]: 3.96E-03 mGy/MBq
- Estimated Absorbed Dose of Organ, Average ± SD: Muscle [4]: 1.06E-02 mGy/MBq
- Estimated Absorbed Dose of Organ, Average ± SD: Osteogenic Cells [4]: 1.00E-02 mGy/MBq
- Estimated Absorbed Dose of Organ, Average ± SD: Pancreas [4]: 7.83E-03 mGy/MBq
- Estimated Absorbed Dose of Organ, Average ± SD: Red Marrow [4]: 9.28E-03 mGy/MBq
- Estimated Absorbed Dose of Organ, Average ± SD: Skin [4]: 5.85E-03 mGy/MBq
- Estimated Absorbed Dose of Organ, Average ± SD: Small Intestine [4]: 1.73E-02 mGy/MBq
- Estimated Absorbed Dose of Organ, Average ± SD: Spleen [4]: 7.40E-03 mGy/MBq
- Estimated Absorbed Dose of Organ, Average ± SD: Stomach Wall [4]: 7.65E-03 mGy/MBq
- Estimated Absorbed Dose of Organ, Average ± SD: Testes [4]: 1.89E-02 mGy/MBq
- Estimated Absorbed Dose of Organ, Average ± SD: Thymus [4]: 5.18E-03 mGy/MBq
- Estimated Absorbed Dose of Organ, Average ± SD: Thyroid [4]: 5.01E-03 mGy/MBq
- Estimated Absorbed Dose of Organ, Average ± SD: Total Body [4]: 1.06E-02 mGy/MBq
- Estimated Absorbed Dose of Organ, Average ± SD: ULI Wall [4]: 1.35E-02 mGy/MBq
- Estimated Absorbed Dose of Organ, Average ± SD: Urinary Bladder Wall [4]: 6.89E-01 † mGy/MBq
- Residence Time (h), Average: Brain [5]: 0.00225 h
- Residence Time (h), Average: Heart [5]: 0.00473 h
- Residence Time (h), Average: Intestine [5]: 0.212 h
- Residence Time (h), Average: Kidneys [5]: 0.0652 h
- Residence Time (h), Average: Liver [5]: 0.0391 h
- Residence Time (h), Average: Lungs [5]: 0.00647 h
- Residence Time (h), Average: Remaining [5]: 0.996 h
- Residence Time (h), Average: Urinary Bladder [5]: 1.44 h
